{"source": "patent US20220387621A1", "about": "“TARGETED DELIVERY OF NANOCARRIER-CONJUGATED DOXORUBICIN” (priority 2019, published 2022)", "key": {"DLBCL PDX tumor": {"system": "DLBCL PDX tumor", "settings": "mouse, in vivo", "description": "(§1) All animal studies were performed under the approval of the University of Miami Institutional Animal Care and Use committee. […] For tumor-bearing experiments, DLBCL PDX DFBL-75549 tumor model was obtained and engrafted mice through surgical dorsal tumor implantation. Tumor volume (TV) was measured by ultrasound (Vevo 3100, Visualsonics) with a predetermined survival endpoint of TV>1500 mm3. A continuous body weight loss of >20% was also a predetermined survival endpoint. For dose-finding experiments, mice were dosed intravenously on day 0, day 14, and day 24 and observed for changes in body weight. For R-nanoCHOP vs. R-CHOP tumor-bearing experiments, mice were dosed with all drugs intravenously once on day 1 of every 21 days, with exception to Prednisone administered orally. The following drug doses were used: Rituximab 20 mg/kg, Cyclophosphamide 40 mg/kg, Doxorubicin 3.3 mg/kg, CDT 33 mg/kg, Vincristine 0.5 mg/kg, Prednisone 0.2 mg/kg."}, "[1]": {"system": "murine B-lymphoma line A20", "test": "48-hour viability assay of A20 cells", "format": "cell-based", "settings": "Mus musculus", "description": "(§2) For 24-48 hr assessments, cells were seeded at 5000 cells per well in a 96-well plate under serial drug dilutions. For delayed drug effect viability, cells were seeded at 500,000 cells per well in a 6-well plate on day 0 and treated with drug for 24 hrs, after which cells were washed ×2 and plated in normal cell media without drug. Viability was assessed using Cell Titer Glo (Promega #G7573) according to manufacturer's protocol. Luminescence was measured using BioTek Synergy HT plate reader. EC50s were calculated using nonlinear fit regression analysis in GraphPad Prism 8. Apoptosis assessment was conducted with BD Biosciences reagent (#559763) using Attune NxT flow cytometer."}, "in vivo": {"test": "in vivo", "settings": "mouse", "description": "as §1\nFormalin-fixed paraffin-embedded tissue sections, produced per standard protocols, were used to make H&E-stained and immunohistochemistry (IHC) pathology slides. Antibodies were used as per above, when applicable."}, "BJAB cells": {"system": "BJAB cells", "test": "Fluorescent confocal microscopy, nuclear colocalization in BJAB", "format": "cell-based, human", "settings": "24 hours", "description": "Cells were seeded at 50,000 cells per well in a 12-well plate and treated with either vehicle or drug. BJAB cells were fixed with 4% paraformaldehyde and permeabilized with 1% NP40 followed by staining for DAPI (Thermofisher Scientific, Waltham, Mass., USA). Cells were then imaged (60×) using a Leica DM4 B microscope. HEK293 cells had the nucleus stained for DAPI (Thermo #R37605) or GFP (Thermo #C10602) per the manufacturer protocol. Cells were live-imaged (63× objective) using Leica Sp5 confocal microscop and images collected and analyzed using ImageJ software."}, "[2]": {"system": "BJAB, Farage, SU-DHL4, and Riva cells", "test": "Delayed drug effect viability: 24 h drug, washout, viability tracking over 6 days", "format": "cell-based, human", "description": "as §2"}, "BJAB and Farage cells": {"system": "BJAB and Farage cells", "test": "48-hour viability with TFRC overexpression, holo-TF competition or dynasore", "format": "cell-based, human", "settings": "15 μM, 50 μM", "description": "as §2\nHuman TFRC cDNA (HsCD00044911) was purchased from the DNASU Plasmid Repository (Tempe, Ariz., USA) and was subsequently cloned into pLVX-IRES-ZsGreenl vector (Clontech Laboratories, Mountain View, Calif., USA). Recombinant plasmids, together with packaging/envelope plasmids psPAX2 and pMD2.G (Addgene, Cambridge, Mass., USA), were co-transfected into HEK293 cells using Lipofectamine 3000 (Invitrogen, Carlsbad, Calif., USA) following manufacturer's instructions. Cell media was changed at 24 hours after transfection, and viral particles collected at 48 hours and 72 hours post transfection.\nFor viral transduction, BJAB and Farage cells were infected with harvested virus by spinoculation. […]"}}, "data": [{"compound": "COc1cccc2c1C(=O)c1c(O)c3c(c(O)c1C2=O)C[C@@](O)(C(=O)CO)C[C@@H]3O[C@H]1C[C@H](N)[C@H](O)[C@H](C)O1", "note": "[Dox, doxorubicin]", "values": [{"measurement": "anti-tumor efficacy (OS and tumor volume)", "setting": "DLBCL PDX tumor", "result": "relatively weak antitumor activity"}, {"measurement": "body weight after two additional doses", "setting": "DLBCL PDX tumor", "result": "irreversible weight loss"}, {"measurement": "body weight nadir", "setting": "DLBCL PDX tumor", "result": 8, "unit": "days"}, {"measurement": "return to starting weight", "setting": "DLBCL PDX tumor", "result": "10 to 14", "unit": "days"}, {"measurement": "EC50", "setting": "[1]", "result": 10.6, "unit": "nM"}, {"measurement": "MTD", "setting": "in vivo; male, NOD scid gamma (NSG), iv", "result": 3.3, "unit": "mg/kg"}, {"measurement": "weight loss at MTD", "setting": "in vivo", "result": "~20", "unit": "%"}, {"measurement": "nuclear colocalization", "setting": "BJAB cells", "result": "similar"}, {"measurement": "cell viability over time-course after washout", "setting": "[2]", "result": "seen only with much higher doses"}]}, {"compound": "O=C(N/N=C/c1ccc(O)c(O)c1)c1cc2ccccc2cc1O", "note": "[dynasore, Dynasore]", "values": [{"measurement": "viability, single agent", "setting": "BJAB and Farage cells", "result": "negatively affected viability"}]}]}
